Measured values taken from US20180312463A1 (The Procter & Gamble Company, priority 2015, published 2018).
Where a name gives a salt, the structure may show the parent alone.

Experiments:
[1] = Sensory evaluation of coolant activity: panelists brushed with dentifrice and rated cooling intensity; assay type: in vivo, human; details: dentifrice, up to 12 hours after brushing
Description: Dentifrices were prepared using conventional methods, such as the protocols described in U.S. Pat. No. 8,747,814, which contained no coolant (SAMPLE A) or having a coolant from TABLE 7 (SAMPLES B and C), in a flavor (peppermint) at 10 parts per million (ppm).
Sensory evaluation studies of coolant activity were conducted using a methodology patterned after the techniques described in M.C. Meilgaard, et al., Sensory Evaluation Techniques, 4th Ed. (2007). Five panelists brushed with a dentifrice from TABLE 8, having no coolant (SAMPLE A) or having a coolant from TABLE 7 (SAMPLES B and C), for two minutes, in a flavor (peppermint) at 10 parts per million (ppm). After brush expectoration, panelists then rinsed their mouth with 15 ml of an aqueous rinse and expectorated.

human TRPM8 [2] = target: human TRPM8 (UniProt Q8R4D5); test: TRPM8 Protocol-FLIPR Assay (EC50 analysis of sensate analogs using TRPM8 activation); assay type: cell-based; details: HEK-293 cells stably transfected with human TRPM8, intracellular Ca2+ by Fluo-4 AM fluorescence
Description: (§1) The term “TRPM8 agonist”, as used herein, refers to any compound, which when added to a TRPM8 receptor, according to the FLIPR method, as discussed herein, produces any increase in fluorescence over background.
(§2) TRPM8 Protocol-FLIPR Assay
(§3) To determine whether TRPM8 is activated, the intracellular calcium ion (Ca^2+) level was measured from transfected cells with the TRPM8 receptor sequence (SEQ ID NO:). […] Trypsin was inactivated by addition of 8 ml growth medium. Cells were transferred to a 50 ml tube and centrifuged at 850 rpm for 3 minutes to remove medium. After centrifugation, a pellet of cells was formed in the bottom of the tube separating them from the supernatant solution. […] Fluo-4 AM is a fluorescent dye used for quantifying cellular Ca^2+ concentrations in the 100 nM to 1 microM range. At the end of 30 minutes, 45 ml of assay buffer (1× HBSS (Hank's Balanced Salt Solution), 20 mM HEPES (4-(2-Hydroxyethyl)-1-piperazineethanesulfonic acid)) was added to wash cells and the resulting mixture was then centrifuged at 850 rpm for 3 minutes to remove excess buffer and Fluo-4 AM calcium indicator.
(§4) The pelleted cells were re-suspended in 10 ml assay buffer and 90 μl aliquots (50,000 cells) per well delivered to a 96-well assay plate containing 10 μl of test compounds (1 mM in assay buffer, final concentration 100 μM) or buffer control and incubated at room temperature for 30 minutes. After 30 minutes, a plate was placed into a fluorometric imaging plate reader (FLIPR384 from Molecular Devices, Sunnyvale, Calif.) and basal fluorescence recorded (excitation wave length 488 nm and emission wave length 510 nm). Then 20 μl of 100 mM of TRPM8 agonist WS5 coolant in the assay buffer was added and fluorescence recorded. For determining the direct effect of test compounds on TRPM8, fluorescence was measured immediately after addition of each compound (TABLE 7).

human TRPM8 [3] = test: as above; assay type: cell-based
Description: as §1, §2, §3, §4

[4] = in vivo; cited from earlier work
[5] = HEK-293 cells stably transfected with human TRPM8, intracellular Ca2+ by Fluo-4 AM fluorescence
[6] = HEK-293 cells stably transfected with human TRPM8, unit inferred

| SMILES | TRPM8 (EC50 values) (human TRPM8 [2]) | EC50 (human TRPM8 [3]; [5]) [µM] | further results |
| --- | --- | --- | --- |
| CC(C)[C@@H]1CC[C@@H](C)C[C@H]1C(=O)NC[C@@H](NC(=O)[C@@H](C)N)c1ccccc1 [Molecule 17, (1R,2S,5R)-N-((S)-2-((R)-2-Aminopropanamido)-2-phenylethyl)-2-isopropyl-5-methylcyclohexane-1-carboxamide] | – | – | cooling response over time after brushing (summary of TABLE 9) [1]: high cooling over the course of 12 hours |
| CC(C)[C@@H]1CC[C@@H](C)C[C@H]1C(=O)NCCNC(=O)[C@@H]1C[C@H](C)CC[C@H]1C(C)C [Molecule 53] | Too high to measure | – | – |
| CC(C)[C@@H]1CC[C@@H](C)C[C@H]1C(=O)NC[C@H](Cc1ccccc1)NC(=O)CN [Example 16] | – | 0.058 | – |
| CC(C)[C@@H]1CC[C@@H](C)C[C@H]1O [L-menthol] | – | – | cooling threshold (concentration where the cooling effect could be clearly recognized) [4]: about 800 ppb |
| CC(C)[C@@H]1CC[C@@H](C)C[C@H]1C(=O)NC[C@@H](NC(=O)[C@H](C)NC(=O)OC(C)(C)C)c1ccccc1 [Example 43, dihydrochloride] | – | – | EC50 (human TRPM8 [3]; [6]): 3 µM |
| CCCCCCCCCCCCCCCC(=O)N[C@H](CNC(=O)[C@@H]1C[C@H](C)CC[C@H]1C(C)C)c1ccccc1 [Molecule 54] | Too high to measure | – | – |
| CC(C)[C@@H]1CC[C@@H](C)C[C@@H]1O [d-neomenthol] | – | – | cooling threshold (concentration where the cooling effect could be clearly recognized) [4]: about 25,000 ppb |
| CC(C)[C@@H]1CC[C@@H](C)C[C@H]1C(=O)NC[C@H](NC(=O)[C@@H](C)N)c1ccccc1 [Molecule 33, (1R,2S ,5R)-N-((R)-2-((R)-2-Aminopropanamido)-2-phenylethyl)-2-isopropyl-5-methylcyclohexane-1-carboxamide] | – | – | cooling response over time after brushing (summary of TABLE 9) [1]: trailed off after 30 minutes |
| CC(C)[C@@H]1CC[C@@H](C)C[C@H]1C(=O)NC[C@@H](N)c1ccccc1Cl [Example 34, hydrochloride] | – | – | EC50 (human TRPM8 [2]): 0.77 µM |
| CC(C)[C@@H]1CC[C@@H](C)C[C@H]1C(=O)NC[C@@H](NC(=O)[C@@H](N)Cc1ccccc1)c1ccccc1 [Molecule 55] | Too high to measure | – | – |
| CC(C)[C@@H]1CC[C@@H](C)C[C@H]1C(=O)NCCN(CCN)CCN.Cl.Cl [Molecule 56] | Too high to measure | – | – |
| CC(C)[C@@H]1CC[C@@H](C)C[C@@H]1O [Molecule 1-neomenthol, 1-neomenthol] | – | – | cooling threshold (concentration where the cooling effect could be clearly recognized) [4]: about 3,000 ppb |
| CC(C)[C@@H]1CC[C@@H](C)C[C@H]1C(=O)NC[C@@H](NC(=O)CN)c1ccccc1 [Molecule 1] | – | – | EC50 (human TRPM8 [3]; [6]): < 0.002 µM |
| CC(C)[C@@H]1CC[C@@H](C)C[C@H]1C(=O)NC[C@@H](NC(=O)[C@H](C)N)C1CCCCC1 | – | 0.0283 | – |
| CC(C)[C@@H]1CC[C@@H](C)C[C@H]1C(=O)NC[C@@H](NC(=O)CN)c1ccccc1Cl | – | 0.02 | – |
| CC(C)[C@@H]1CC[C@@H](C)C[C@H]1C(=O)NCCNC(=O)CNC(=O)OC(C)(C)C [Example 49, tert-butyl (2-((2-((1R,2S,5R)-2-isopropyl-5-methylcyclohexane-1-carboxamido)ethyl)amino)-2-oxoethyl)carbamate] | – | 40 | – |

Now from value to molecule, other results behind:

| TRPM8 (EC50 values) (human TRPM8 [2]) | EC50 (human TRPM8 [3]; [5]) [µM] | SMILES | further results |
| --- | --- | --- | --- |
| Too high to measure | – | CC(C)[C@@H]1CC[C@@H](C)C[C@H]1C(=O)NC[C@@H](NC(=O)OC(C)(C)C)c1ccccc1 [Molecule 58] | – |
| – | 0.009 | CC(C)[C@@H]1CC[C@@H](C)C[C@H]1C(=O)NC[C@@H](NC(=O)[C@H](C)N)c1ccccc1 [Example 7] | – |
| – | 0.374 | CC(C)[C@@H]1CC[C@@H](C)C[C@H]1C(=O)NC[C@H](O)c1ccccc1 [Example 29] | – |
| Too high to measure | – | CC(C)[C@@H]1CC[C@@H](C)C[C@H]1C(=O)NC[C@@H](NC(=O)[C@@H](C)NC(=O)OC(C)(C)C)c1ccccc1 [Molecule 59] | – |
| Too high to measure | – | CC(C)[C@@H]1CC[C@@H](C)C[C@H]1C(=O)NC[C@H](NC(=O)[C@@H](C)NC(=O)OC(C)(C)C)c1ccccc1 [Molecule 57] | – |
| – | 0.0027 | CC(C)[C@@H]1CC[C@@H](C)C[C@H]1C(=O)NC[C@@H](NC(=O)[C@H](C)N)c1ccccc1 [Molecule 2] | – |
| Too high to measure | – | CC(C)[C@@H]1CC[C@@H](C)C[C@H]1C(=O)NC[C@H](NC(=O)OC(C)(C)C)c1ccccc1 [Molecule 52] | – |
